In article PMC4601640, “Stability of the Human Hsp90-p50^Cdc37 Chaperone Complex against Nucleotides and Hsp90 Inhibitors, and the Influence of Phosphorylation by Casein Kinase 2” (Molecules, 2015):
“Also recorded” adds a separate entry of the source.

How the values were obtained:
hHsp90β-FL = target: T1, hHsp90β-FL (Homo sapiens, UniProt P08238); assay: ITC direct binding to full-length Hsp90β; settings: Figure 3
T1 construct: The gene encoding human full-length Hsp90β was subcloned from T47D cell line cDNA; His6 (N); made in house; host or cells: E. coli BL21 Star (DE3)
Protocol: (§1) Binding of p50^Cdc37 and small molecules to Hsp90 was analyzed using a MicroCal iTC200 titration calorimeter (GE Healthcare). Compounds or p50^Cdc37 were titrated into a solution of Hsp90 using the following concentrations: p50^Cdc37 (200 µM) into Hsp90 (20 µM), nucleotides (600 µM) into Hsp90 (30 µM), inhibitors (300 µM) into Hsp90 (30 µM). […] All experiments were conducted in 50 mM HEPES pH 7.5, 10 mM MgCl2 at 30 °C. For titration of inhibitors, the buffer contained 5% DMSO. […] Generation of heat due to dilution was determined in separate experiments by diluting protein into buffer and subtracting these as blank values for each injection. Corrected heat values were fitted using a nonlinear least squares curve-fitting algorithm (Microcal Origin 7.0) to obtain the stoichiometry (n), binding constants (Ka, Kd), and change in enthalpy for each enzyme-ligand interaction (ΔH).

Hsp90-p50^Cdc37 = target: T2, Hsp90-p50^Cdc37 (Homo sapiens, UniProt P08238); assay: ELISA complex formation, immobilized GST-p50^Cdc37 and Hsp90β, unphosphorylated; format: binding
T2 construct: The gene encoding human full-length Hsp90β was subcloned from T47D cell line cDNA; made in house; host or cells: E. coli BL21 Star (DE3) (Hsp90β); E. coli BL21 (DE3) (GST-p50Cdc37)

ΔHsp90-p50^Cdc37 = target: T3, ΔHsp90-p50^Cdc37 (Homo sapiens, UniProt P08238, DEL220-271/E274G/I272G/K273G/K275G); assay: ELISA complex formation, ΔHsp90; format: binding
T3 construct: human Hsp90β (1-724 Δ220-275); made in house; host or cells: E. coli BL21 Star (DE3) (ΔHsp90β); E. coli BL21 (DE3) (GST-p50Cdc37)
T3 sequence (P08238 with tags, fused parts or gaps DEL220-271/I272G/K273G/E274G/K275G): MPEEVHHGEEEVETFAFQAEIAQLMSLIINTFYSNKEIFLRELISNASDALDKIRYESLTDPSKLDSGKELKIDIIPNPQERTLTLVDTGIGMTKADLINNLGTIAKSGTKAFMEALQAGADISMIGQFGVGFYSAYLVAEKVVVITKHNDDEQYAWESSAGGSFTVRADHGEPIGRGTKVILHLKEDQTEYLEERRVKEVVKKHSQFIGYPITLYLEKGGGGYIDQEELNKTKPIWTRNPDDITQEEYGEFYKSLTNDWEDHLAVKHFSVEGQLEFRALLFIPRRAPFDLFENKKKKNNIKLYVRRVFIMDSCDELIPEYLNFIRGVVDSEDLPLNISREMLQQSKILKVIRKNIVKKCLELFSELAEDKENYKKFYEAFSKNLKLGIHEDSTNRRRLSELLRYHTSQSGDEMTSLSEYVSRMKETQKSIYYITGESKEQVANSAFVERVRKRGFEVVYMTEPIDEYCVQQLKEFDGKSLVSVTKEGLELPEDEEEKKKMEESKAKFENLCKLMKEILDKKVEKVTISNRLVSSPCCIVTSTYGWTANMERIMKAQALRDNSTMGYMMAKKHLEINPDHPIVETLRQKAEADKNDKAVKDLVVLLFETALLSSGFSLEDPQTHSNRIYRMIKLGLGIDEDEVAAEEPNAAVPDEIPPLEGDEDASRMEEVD

[1] = target: T4, ΔHsp90β interaction with GST-p50^Cdc37 (Homo sapiens, UniProt P08238, DEL220-271/E274G/I272G/K273G/K275G); assay: GST pull-down of ΔHsp90β with GST-p50^Cdc37; format: binding
T4 construct: human Hsp90β (1-724 Δ220-275); made in house; host or cells: E. coli BL21 Star (DE3) (ΔHsp90β); E. coli BL21 (DE3) (GST-p50Cdc37)
T4 sequence (P08238 with tags, fused parts or gaps DEL220-271/I272G/K273G/E274G/K275G): as above
Protocol: GST pull-down experiments were carried out using 1 mL GST 4 FastFlow resin in 8 mL Flex columns (Kontes). All experiments were performed at room temperature by gravity flow. Loading and wash buffers contained 50 mM Tris pH 8, 50 mM KCl, 5 mM MgCl2, and 5% DMSO. The elution buffer contained an additional 10 mM reduced glutathione. […] The resin was washed with 20 CV wash buffer, and samples were eluted with 2 CV elution buffer. Eluted protein was analysed on 12% SDS-PAGE stained with Coomassie blue for visualization.

(p)Hsp90-(p)p50^Cdc37 = (p)Hsp90-(p)p50^Cdc37 (Homo sapiens, UniProt P08238); assay: biochemical
(p)Hsp90-(p)p50^Cdc37, sequence (P08238 whole entry): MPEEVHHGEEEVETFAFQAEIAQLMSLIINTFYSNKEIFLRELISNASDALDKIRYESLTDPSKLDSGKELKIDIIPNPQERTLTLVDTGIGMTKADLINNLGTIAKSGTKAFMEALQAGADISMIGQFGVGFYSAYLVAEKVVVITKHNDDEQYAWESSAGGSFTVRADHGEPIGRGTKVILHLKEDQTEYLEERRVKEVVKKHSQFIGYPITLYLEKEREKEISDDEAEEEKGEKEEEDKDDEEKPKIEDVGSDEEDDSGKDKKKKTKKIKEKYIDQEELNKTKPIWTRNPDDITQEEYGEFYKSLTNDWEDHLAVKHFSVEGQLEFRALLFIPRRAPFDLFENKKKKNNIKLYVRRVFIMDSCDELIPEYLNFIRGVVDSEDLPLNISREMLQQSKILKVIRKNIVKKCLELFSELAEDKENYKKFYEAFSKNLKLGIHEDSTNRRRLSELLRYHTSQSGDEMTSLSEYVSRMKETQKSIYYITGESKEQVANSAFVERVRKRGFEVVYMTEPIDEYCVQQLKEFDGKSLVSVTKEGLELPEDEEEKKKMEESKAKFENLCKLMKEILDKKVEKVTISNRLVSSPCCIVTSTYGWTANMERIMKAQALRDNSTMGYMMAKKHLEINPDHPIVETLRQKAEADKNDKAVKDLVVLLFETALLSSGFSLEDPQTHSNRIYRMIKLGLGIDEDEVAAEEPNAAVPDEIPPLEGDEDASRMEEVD
Protocol: Phosphorylation of full-length Hsp90β and p50^Cdc37 was performed using purified full-length CK2α. The reaction was carried out in a 2.5 mL volume containing 50 µM Hsp90β or p50^Cdc37, 0.5 µM CK2α, 0.5 mM ATP, 20 mM Tris (pH 7.5), 50 mM KCl, and 10 mM MgCl2, and was incubated for 1 h at 30 °C. Samples were removed for analysis of phosphorylation status, and the proteins were re-buffered into 50 mM HEPES (pH 7.5), 150 mM NaCl, and 1 mM DTT (ELISA), or into 50 mM HEPES (pH 7.5) for ITC, using PD-10 gravity columns (GE Healthcare). Dephosphorylation was performed using 2.5 units of FastAP (alkaline phosphatase from Thermo Scientific) in buffer containing 10 mM Tris (pH 8.0 at 37 °C), 5 mM MgCl2, 100 mM KCl, 0.02% Triton-X 100, and 0.5 mg/mL BSA for 1 h at 37 °C.
Purified GST-p50^Cdc37 (4 µM) or control (purified GST alone, 4 µM) was added to glutathione-coated 96-well plates (Pierce) in 100 μL protein buffer (50 mM HEPES, pH 7.5, 150 mM NaCl, 10 mM MgCl2, 0.05% Tween-20, and 0.1% BSA) and incubated for 1 h at room temperature (triplicate wells per sample). […] The mixtures were then added to the wells (100 μL per well, in triplicates) and incubated for 1 h at room temperature before washing. The wells were incubated with anti-His6-tag mAb (1 mg/mL stock, Abcam), diluted 1:2000 in antibody buffer (50 mM HEPES pH 7.5, 150 mM NaCl, 10 mM MgCl2, 0.05% Tween-20, and 1% BSA) for 1 h, followed by secondary antibody (horse anti-mouse HRP-conjugated IgG, Cell Signaling Technology), diluted 1:5000 in antibody buffer, for 1.5 h at room temperature. After washing three times with 1× HBS-T and two times with 1× HBS, 200 μL HRP substrate (SigmaFast OPD) was added per well. The plates were incubated at room temperature, and the absorbance was read at 450 nm after 15 min and 30 min using a SpectraMax 340 PC plate reader (Molecular Devices). For dose-response measurements, absorption values were corrected for unspecific binding of Hsp90 to immobilized GST, and the raw data were fit to equation (1), where f(I) is the fraction of complex remaining, [I] is the concentration of the inhibitor, IC50 is the half maximal inhibitory concentration against Hsp90-p50^Cdc37 complex formation, n is the Hill slope coefficient, min is the signal remaining at high inhibitor concentrations and max is the signal of the uninhibited complex. Corrected absorption values (ΔOD) for the uninhibited Hsp90-p50^Cdc37 complex (unphosphorylated and phosphorylated) were in the range of 0.4–1.0. Data were expressed relative to the respective max value of Equation (1). (1) f(I)=min+(max−min)/1+([I]/IC50)^n

(p)Hsp90-p50^Cdc37 = (p)Hsp90-p50^Cdc37 (Homo sapiens, UniProt P08238); assay: ELISA complex formation, CK2-phosphorylated Hsp90β
(p)Hsp90-p50^Cdc37, sequence (P08238 whole entry): as above

hΔHsp90β = target: T5, hΔHsp90β (Homo sapiens, UniProt P08238, DEL220-271/E274G/I272G/K273G/K275G); assay: ITC direct binding to Hsp90β deletion mutant lacking the charged linker; settings: 50 mM HEPES pH 7.5, 10 mM MgCl2, 30 °C, read-out: Observed Kd
T5 construct: human Hsp90β (1-724 Δ220-275); His6 (N); made in house; host or cells: E. coli BL21 Star (DE3)
T5 sequence (P08238 with tags, fused parts or gaps DEL220-271/I272G/K273G/E274G/K275G): as the sequence (P08238 with tags, fused parts or gaps DEL220-271/I272G/K273G/E274G/K275G) above
Description: The gene encoding human full-length Hsp90β was subcloned from T47D cell line cDNA, and human full-length CK2α was subcloned from MCF7 cell line cDNA, both a kind gift from Dr. Jonathan Lancaster, Moffitt Cancer Center. […] The deleted sections in the two Hsp90 genes were each replaced by four glycine residues. Hsp90α and Hsp90β were subcloned into the pET28a vector (Novagen), and p50^Cdc37 was subcloned into a modified pET28a vector containing a maltose-binding protein (MBP) solubility tag and a PreScission protease cleavage site using restriction enzymes BamHI and NotI (Fermentas) and T4 DNA ligase (Invitrogen) following the manufacturers’ instructions. BamHI was substituted with NdeI for full-length Hsp90β. p50^Cdc37 was also subcloned into the pGEX6P-1 vector (GE Healthcare) using the same procedure as above to provide an N-terminal GST-tag for GST pull-down and ELISA experiments. The plasmids were transformed into E. coli BL21 Star (DE3) (Hsp90α and Hsp90β, Invitrogen), Tuner (DE3) (p50^Cdc37 modified pET28a, Novagen), or BL21 (DE3) (p50^Cdc37 pGEX6P-1, Stratagene) expression strains. Transformed cells were grown in LB broth at 37 °C until the OD600 reached 0.4, then the temperature was lowered to 16 °C, and cells were induced with 0.1 mM IPTG at OD600 = 0.5–0.7. Cultures were then grown for 20–24 h before harvesting by centrifugation (30 min at 30,000× g, 4 °C).
as §1

hHsp90β-N = target: T6, hHsp90β-N (Homo sapiens, UniProt P08238); assay: ITC direct binding to N-terminal domain of Hsp90β; settings: 30 °C, read-out: Observed Kd
T6 construct: human N-terminal Hsp90β (1-219, denoted Hsp90β-N); His6 (N); made in house; host or cells: E. coli BL21 Star (DE3)
T6 sequence (P08238 1-219): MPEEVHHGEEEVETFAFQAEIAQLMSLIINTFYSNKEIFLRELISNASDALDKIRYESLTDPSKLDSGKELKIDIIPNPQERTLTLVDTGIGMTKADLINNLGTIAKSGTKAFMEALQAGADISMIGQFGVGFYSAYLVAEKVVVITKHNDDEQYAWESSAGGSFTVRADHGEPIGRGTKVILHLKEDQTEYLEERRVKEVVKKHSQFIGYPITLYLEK
Description: The gene encoding human full-length Hsp90β was subcloned from T47D cell line cDNA, and human full-length CK2α was subcloned from MCF7 cell line cDNA, both a kind gift from Dr. Jonathan Lancaster, Moffitt Cancer Center. The genes encoding the deletion mutants human Hsp90α (1-732 Δ226-283), human Hsp90β (1-724 Δ220-275), human N-terminal Hsp90β (1-219, denoted Hsp90β-N), and human full-length p50^Cdc37 (residues 1-378) were synthesized by GeneArt AG with optimized codon usage for E. coli expression. The deleted sections in the two Hsp90 genes were each replaced by four glycine residues. […]
Binding of p50^Cdc37 and small molecules to Hsp90 was analyzed using a MicroCal iTC200 titration calorimeter (GE Healthcare). […] Typically, an initial 0.5 µL injection was followed by 19 injections of 2.2 µL of syringe solution (compound or p50^Cdc37) into a 200 µL protein solution of Hsp90 constantly stirred at 1000 rpm, and data were recorded for 180 s between injections. Generation of heat due to dilution was determined in separate experiments by diluting protein into buffer and subtracting these as blank values for each injection. […]

yHsp82-FL = yHsp82-FL with human p50^Cdc37; ref [30]; read-out: Reported Kd; cited from earlier work

| binding potential towards Hsp90β (hHsp90β-FL) | IC50 (Hsp90-p50^Cdc37; ELISA, Hsp90-p50^Cdc37 (unphosphorylated)) | IC50 (ΔHsp90-p50^Cdc37) | effect on complex in GST pull-down ([1]; 1 mM nucleotide or 0.1 mM inhibitor, 15 min incubation, SDS-PAGE) | protection of the complex from ADP in GST pull-down competition ([1]; in the presence of ADP, 0.1 mM radicicol) | IC50 ((p)Hsp90-(p)p50^Cdc37) | IC50 ((p)Hsp90-p50^Cdc37) | Kd (hΔHsp90β) | Kd (hHsp90β-N) | Molecule | inhibitory activity against the complex (Hsp90-p50^Cdc37; unphosphorylated or phosphorylated complex, in vitro) | Kd (yHsp82-FL) |
| --- | --- | --- | --- | --- | --- | --- | --- | --- | --- | --- | --- |
| failed to display binding potential | > 1000 µM | > 1000 µM | ineffective | had no effect | > 1000 µM | > 1000 µM |  |  | CC(=O)O[C@@H]1C[C@H]2C(C)(C)C(=O)C=C[C@]2(C)[C@H]2CC[C@@]3(C)[C@H](c4ccoc4)OC(=O)[C@H]4O[C@]43[C@@]21C [Gedunin] | did not show appreciable inhibitory activity; also recorded: did not affect the interaction of Hsp90 with p50^Cdc37 in vitro |  |
|  |  |  |  |  |  |  | 1.1 µM | 4.4 µM | p50^Cdc37: human full-length co-chaperone protein p50^Cdc37 (residues 1-378), unphosphorylated |  | 1.5 µM |
